# Experimental data: patent publication US12344597B2, “Alkoxy-substituted pyridinyl derivatives as LPA1 receptor antagonists and their use in the treatment of fibrosis” (IDORSIA PHARMACEUTICALS LTD, priority 2018, dated 2025)
# Target: human LPA1 receptor (Homo sapiens (Human), UniProt Q92633)
# Assay: Beta-arrestin recruitment assay to determine IC50 values for human LPAR1
# Type: cell-based
# Conditions: antagonist mode, Tango EDG2-bla U2OS cells, LPA 18:1 500 nM final
# Excerpt: Beta-Arrestin Recruitment Assay to Determine IC50 Values for Human LPAR1
# The Tango™ EDG2-bla U2OS cells are obtained from Invitrogen. These cells contain the human LPA1 receptor cDNA linked to a TEV protease site and a Gal4-VP16 transcription factor integrated into the Tango™ GPCR-bla U2OS parental cell line. This parental cell line stably expresses a beta-arrestin/TEV protease fusion protein and the beta-lactamase (bla) reporter gene under the control of a UAS response element. Upon LPA (agonist) binding, LPA1 receptor gets activated, leading to arrestin-protease recruitment and proteolytic release of the transcription factor: The transcription factor then regulates transcription of a beta-lactamase reporter construct, which is measured upon addition of the live-cell substrate.
# 10′000 Tango™ EDG2-bla U2OS cells are seeded in a 384-well black with clear bottom plate in 30 μl Freestyle 293 Expression Medium (Invitrogen) and incubated for 20 h at 37° C., 5% CO2. […] IC50 is the concentration of antagonist inhibiting 50% of the maximal response.
# Sequence of human LPA1 receptor (Q92633 whole entry): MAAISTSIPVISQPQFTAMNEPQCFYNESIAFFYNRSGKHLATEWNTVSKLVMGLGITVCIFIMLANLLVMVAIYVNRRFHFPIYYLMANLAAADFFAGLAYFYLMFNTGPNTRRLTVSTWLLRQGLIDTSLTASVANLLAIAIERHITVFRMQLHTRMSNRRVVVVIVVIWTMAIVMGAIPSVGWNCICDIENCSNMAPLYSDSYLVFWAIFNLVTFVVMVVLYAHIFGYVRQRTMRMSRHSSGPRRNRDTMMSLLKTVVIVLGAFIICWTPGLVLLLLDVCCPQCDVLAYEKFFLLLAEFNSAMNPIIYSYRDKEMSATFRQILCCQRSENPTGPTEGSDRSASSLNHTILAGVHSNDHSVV
row,Molecule,IC50
1,"COc1ncccc1NC(=O)C1(c2ccccc2)CNC1 [Ex 85, N-(2-methoxypyridin-3-yl)-3-phenylazetidine-3-carboxamide, reference compound]",> 10000 nM
2,"COC(=O)C(C)(C)CCN1CC(C(=O)Nc2ccc(C)nc2OC(F)F)(c2ccccc2C(C)C)C1 [Ex 11-30, methyl 4-(3-((2-(difluoromethoxy)-6-methylpyridin-3-yl)carbamoyl)-3-(2-isopropylphenyl)azetidin-1-yl)-2,2-dimethylbutanoate]",98 nM
3,"Cc1ccc(NC(=O)C2(c3ccccc3C(C)C)CN(CC3(CO)COC3)C2)c(OC(F)F)n1 [Ex 11-89, N-(2-(difluoromethoxy)-6-methylpyridin-3-yl)-1-((3-(hydroxymethyl)oxetan-3-yl)methyl)-3-(2-isopropylphenyl)azetidine-3-carboxamide]",73 nM
4,N-(2-(difluoromethoxy)-6-methylpyridin-3-yl)-1-(2-(1-(2-hydroxyethyl)piperidin-4-yl)acetyl)-3-(2-isopropylphenyl)azetidine-3-carboxamide [Ex 12-140],122 nM
5,"Cc1ccc(NC(=O)C2(c3ccccc3C(C)C)CN(C(=O)CNC(N)=O)C2)c(OC(F)F)n1 [Ex 12-10, 1-(carbamoylglycyl)-N-(2-(difluoromethoxy)-6-methylpyridin-3-yl)-3-(2-isopropylphenyl)azetidine-3-carboxamide]",155 nM
6,"Cc1ccc(NC(=O)C2(c3ccccc3C(C)C)CN(Cc3cccn3CC(=O)O)C2)c(OC(F)F)n1 [Ex 11-42, 2-(2-((3-((2-(difluoromethoxy)-6-methylpyridin-3-yl)carbamoyl)-3-(2-isopropylphenyl)azetidin-1-yl)methyl)-1H-pyrrol-1-yl)acetic acid]",43 nM
7,"Cc1ccc(NC(=O)C2(c3ccccc3C(C)C)CN(C(=O)[C@H](C)CC(=O)O)C2)c(OC(F)F)n1 [Ex 12-90, (R)-4-(3-((2-(difluoromethoxy)-6-methylpyridin-3-yl)carbamoyl)-3-(2-isopropylphenyl)azetidin-1-yl)-3-methyl-4-oxobutanoic acid]",14 nM
8,"Cc1ccc(NC(=O)C2(c3ccccc3C(C)C)CN(c3noc(O)n3)C2)c(OC(F)F)n1 [Ex 21, N-(2-(difluoromethoxy)-6-methylpyridin-3-yl)-1-(5-hydroxy-1,2,4-oxadiazol-3-yl)-3-(2-isopropylphenyl)azetidine-3-carboxamide]",12 nM
9,"Cc1ccc(NC(=O)C2(c3ccccc3C(C)C)CN(CC3(C(=O)O)COC3)C2)c(OC(F)F)n1 [Ex 11-91, 3-((3-((2-(difluoromethoxy)-6-methylpyridin-3-yl)carbamoyl)-3-(2-isopropylphenyl)azetidin-1-yl)methyl)oxetane-3-carboxylic acid]",46 nM
10,"Cc1ccc(NC(=O)C2(c3ccccc3C(C)C)CN(C(=O)[C@H]3CNCCO3)C2)c(OC(F)F)n1 [Ex 12-42, (R)-N-(2-(difluoromethoxy)-6-methylpyridin-3-yl)-3-(2-isopropylphenyl)-1-(morpholine-2-carbonyl)azetidine-3-carboxamide]",71 nM
11,"CC(=O)N1CCC(CC(=O)N2CC(C(=O)Nc3ccc(C)nc3OC(F)F)(c3ccccc3C(C)C)C2)CC1 [Ex 12-137, 1-(2-(1-acetylpiperidin-4-yl)acetyl)-N-(2-(difluoromethoxy)-6-methylpyridin-3-yl)-3-(2-isopropylphenyl)azetidine-3-carboxamide]",225 nM
12,"CCCOc1nc(C)ccc1NC(=O)C1(c2ccccc2C(C)C)CN(S(N)(=O)=O)C1 [Ex 59, 3-(2-isopropylphenyl)-N-(6-methyl-2-propoxypyridin-3-yl)-1-sulfamoylazetidine-3-carboxamide]",270 nM
13,"Cc1ccc(NC(=O)C2(c3ccccc3C(C)C)CCN(C(=O)CC3(O)COC3)CC2)c(OC(F)F)n1 [Ex 12-14, N-(2-(difluoromethoxy)-6-methylpyridin-3-yl)-1-(2-(3-hydroxyoxetan-3-yl)acetyl)-4-(2-isopropylphenyl)piperidine-4-carboxamide]",7 nM
14,"Cc1ccc(NC(=O)C2(c3ccccc3C(C)C)CN(C(=O)CCC(C)(C)C(=O)O)C2)c(OC(F)F)n1 [Ex 12-103, 5-(3-((2-(difluoromethoxy)-6-methylpyridin-3-yl)carbamoyl)-3-(2-isopropylphenyl)azetidin-1-yl)-2,2-dimethyl-5-oxopentanoic acid]",19 nM
15,"Cc1ccc(NC(=O)C2(c3ccccc3C(C)C)CN(C(=O)CNCC3(O)CC3)C2)c(OC(F)F)n1 [Ex 12-57, N-(2-(difluoromethoxy)-6-methylpyridin-3-yl)-1-(((1-hydroxycyclopropyl)methyl)glycyl)-3-(2-isopropylphenyl)azetidine-3-carboxamide]",17 nM
16,"CC(=O)N(O)CC(=O)N1CC(C(=O)Nc2ccc(C)nc2OC(F)F)(c2ccccc2C(C)C)C1 [Ex 12-136, 1-(N-acetyl-N-hydroxyglycyl)-N-(2-(difluoromethoxy)-6-methylpyridin-3-yl)-3-(2-isopropylphenyl)azetidine-3-carboxamide]",9 nM
17,"Cc1ccc(NC(=O)C2(c3ccccc3C(C)C)CN(Cc3cn(CC(=O)O)nn3)C2)c(OC(F)F)n1 [Ex 11-49, 2-(4-((3-((2-(difluoromethoxy)-6-methylpyridin-3-yl)carbamoyl)-3-(2-isopropylphenyl)azetidin-1-yl)methyl)-1H-1,2,3-triazol-1-yl)acetic acid]",547 nM

# The next lines start with the values.
row,IC50,Molecule
1,1760 nM,"CCOC(=O)CC1(S(=O)(=O)N2CC(C(=O)Nc3ccc(C)nc3OC(F)F)(c3ccccc3C(C)C)C2)CC1 [Ex 13-13, ethyl 2-(1-((3-((2-(difluoromethoxy)-6-methylpyridin-3-yl)carbamoyl)-3-(2-isopropylphenyl)azetidin-1-yl)sulfonyl)cyclopropyl)acetate]"
2,14 nM,"Cc1ccc(NC(=O)C2(c3ccccc3C(C)C)CCN(S(=O)(=O)CC(=O)O)CC2)c(OC(F)F)n1 [Ex 13-3, 2-((4-((2-(difluoromethoxy)-6-methylpyridin-3-yl)carbamoyl)-4-(2-isopropylphenyl)piperidin-1-yl)sulfonyl)acetic acid]"
3,18 nM,"COC(=O)CC(C)(C)NC(=O)N1CC(C(=O)Nc2ccc(C)nc2OC(F)F)(c2ccccc2C(C)C)C1 [Ex 17-1, Methyl 3-(3-((2-(difluoromethoxy)-6-methylpyridin-3-yl)carbamoyl)-3-(2-isopropylphenyl)azetidine-1-carboxamido)-3-methylbutanoate]"
4,71 nM,"CCOC(=O)c1coc(N2CC(C(=O)Nc3cccnc3OC(F)F)(c3ccccc3C(C)C)C2)n1 [Ex 18-29, ethyl 2-(3-((2-(difluoromethoxy)pyridin-3-yl)carbamoyl)-3-(2-isopropylphenyl)azetidin-1-yl)oxazole-4-carboxylate]"
5,79 nM,"COC(=O)C1(OC(=O)N2CC(C(=O)Nc3ccc(C)nc3OC(F)F)(c3ccccc3C(C)C)C2)CC1 [Ex 14-7, 1-(methoxycarbonyl)cyclopropyl 3-((2-(difluoromethoxy)-6-methylpyridin-3-yl)carbamoyl)-3-(2-isopropylphenyl)azetidine-1-carboxylate]"
6,10 nM,"CC(C)c1ccccc1C1(C(=O)Nc2cccnc2OC(F)F)CN(c2ncncc2F)C1 [Ex 18-21, N-(2-(difluoromethoxy)pyridin-3-yl)-1-(5-fluoropyrimidin-4-yl)-3-(2-isopropylphenyl)azetidine-3-carboxamide]"
7,30 nM,"COC(=O)c1cnc(N2CC(C(=O)Nc3ccc(C)nc3OC(F)F)(c3ccccc3C(C)C)C2)n1C [Ex 18-35, methyl 2-(3-((2-(difluoromethoxy)-6-methylpyridin-3-yl)carbamoyl)-3-(2-isopropylphenyl)azetidin-1-yl)-1-methyl-1H-imidazole-5-carboxylate]"
8,7 nM,"COC(=O)C1(CNC(=O)N2CC(C(=O)Nc3ccc(C)nc3OC(F)F)(c3ccccc3C(C)C)C2)CC1 [Ex 17-14, methyl 1-((3-((2-(difluoromethoxy)-6-methylpyridin-3-yl)carbamoyl)-3-(2-isopropylphenyl)azetidine-1-carboxamido)methyl)cyclopropane-1-carboxylate]"
9,49 nM,"Cc1ccc(NC(=O)C2(c3ccccc3C(C)C)CN(S(=O)(=O)CCCS(=O)(=O)O)C2)c(OC(F)F)n1 [Ex 13-30, 3-((3-((2-(difluoromethoxy)-6-methylpyridin-3-yl)carbamoyl)-3-(2-isopropylphenyl)azetidin-1-yl)sulfonyl)propane-1-sulfonic acid]"
10,280 nM,"COC(=O)C1(CS(=O)(=O)N2CC(C(=O)Nc3ccc(C)nc3OC(F)F)(c3ccccc3C(C)C)C2)COC1 [Ex 13-15, methyl 3-(((3-((2-(difluoromethoxy)-6-methylpyridin-3-yl)carbamoyl)-3-(2-isopropylphenyl)azetidin-1-yl)sulfonyl)methyl)oxetane-3-carboxylate]"
11,366 nM,"COC(=O)C(C)(C)CS(=O)(=O)N1CC(C(=O)Nc2ccc(C)nc2OC(F)F)(c2ccccc2C(C)C)C1 [Ex 13-11, methyl 3-((3-((2-(difluoromethoxy)-6-methylpyridin-3-yl)carbamoyl)-3-(2-isopropylphenyl)azetidin-1-yl)sulfonyl)-2,2-dimethylpropanoate]"
12,8 nM,"CCCc1ccccc1C1(C(=O)Nc2ccc(C)nc2OC(F)F)CN(C(=O)CC(C)(C)C(=O)O)C1 [Ex 31-7, 4-(3-((2-(difluoromethoxy)-6-methylpyridin-3-yl)carbamoyl)-3-(2-propylphenyl)azetidin-1-yl)-2,2-dimethyl-4-oxobutanoic acid]"
